Source: BindingDB's records for doi:10.1021/acs.jmedchem.8b00789 (Laval University, 2018)

Legend:
[1] = Antagonist activity at UT receptor in Sprague-Dawley rat thoracic aortic ring assessed as reduction in URP-induced contraction by measuring pEC50 for human urotensin-2-induced contraction at 3 x 10^-10M pre-incubated for 30 mins before urotensin-2 stimulation (Rvb = 8.16 +/- 0.08 No_unit)
[2] = Antagonist activity at UT receptor in Sprague-Dawley rat thoracic aortic ring assessed as reduction in urotensin-2-induced contraction by measuring pEC50 for human urotensin-2-induced contraction at 1 x 10^-8M uM pre-incubated for 30 mins before urotensin-2 stimulation (Rvb = 8.59 +/- 0.12 No_unit)
[3] = Antagonist activity at UT receptor in Sprague-Dawley rat thoracic aortic ring assessed as reduction in urotensin-2-induced contraction by measuring pEC50 for human urotensin-2-induced contraction at 1 x 10^-7M uM pre-incubated for 30 mins before urotensin-2 stimulation (Rvb = 8.59 +/- 0.12 No_unit)
[4] = Antagonist activity at UT receptor in Sprague-Dawley rat thoracic aortic ring assessed as reduction in URP-induced contraction by measuring pEC50 for human urotensin-2-induced contraction at 1 x 10^-7M pre-incubated for 30 mins before urotensin-2 stimulation (Rvb = 8.16 +/- 0.08 No_unit)
[5] = Antagonist activity at UT receptor in Sprague-Dawley rat thoracic aortic ring assessed as reduction in urotensin-2-induced contraction by measuring pEC50 for human urotensin-2-induced contraction at 1 uM pre-incubated for 30 mins before urotensin-2 stimulation (Rvb = 8.59 +/- 0.12 No_unit)
[6] = Antagonist activity at UT receptor in Sprague-Dawley rat thoracic aortic ring assessed as reduction in URP-induced contraction by measuring pEC50 for human urotensin-2-induced contraction at 1 uM pre-incubated for 30 mins before urotensin-2 stimulation (Rvb = 8.16 +/- 0.08 No_unit)

Row | SMILES | EC50 [1] [nM] | EC50 [2] [nM] | EC50 [3] [nM] | EC50 [4] [nM] | EC50 [5] [nM] | EC50 [6] [nM]
1 | CC(C)[C@H](NC(=O)[C@@H]1CSSC[C@H](NC(=O)[C@H](C)N)C(=O)N[C@@H](Cc2ccc(-c3ccccc3)cc2)C(=O)N[C@@H](Cc2c[nH]c3ccccc23)C(=O)N[C@@H](CCCCN)C(=O)N[C@@H](Cc2ccc(O)cc2)C(=O)N1)C(=O)O | 35 | 7.2 | 17 | 112 |  | 
2 | CC(C)[C@H](NC(=O)[C@@H]1CSSC[C@H](NC(=O)[C@H](C)N)C(=O)N[C@H](Cc2ccc(C#Cc3ccccc3)cc2)C(=O)N[C@@H](Cc2c[nH]c3ccccc23)C(=O)N[C@@H](CCCCN)C(=O)N[C@@H](Cc2ccc(O)cc2)C(=O)N1)C(=O)O |  |  |  |  | 5.4 | 18
3 | CC(C)[C@H](NC(=O)[C@@H]1CSSC[C@H](NC(=O)[C@H](C)N)C(=O)N[C@H](Cc2ccc(-c3ccccc3)cc2)C(=O)N[C@@H](Cc2c[nH]c3ccccc23)C(=O)N[C@@H](CCCCN)C(=O)N[C@@H](Cc2ccc(O)cc2)C(=O)N1)C(=O)O |  |  |  |  | 6.8 | 2.8

The remaining lines, values ahead:

Row | EC50 [1] [nM] | EC50 [2] [nM] | EC50 [3] [nM] | EC50 [4] [nM] | EC50 [5] [nM] | EC50 [6] [nM] | SMILES
4 |  |  |  |  | 1.1 | 12 | CC(C)[C@H](NC(=O)[C@@H]1CSSC[C@H](NC(=O)[C@@H](N)CC(=O)O)C(=O)N[C@H](Cc2ccc(I)cc2)C(=O)N[C@@H](Cc2c[nH]c3ccccc23)C(=O)N[C@@H](CCCCN)C(=O)N[C@@H](Cc2ccc(O)cc2)C(=O)N1)C(=O)O
5 |  |  |  |  | 3.2 | 13 | CC(C)[C@H](NC(=O)[C@@H]1CSSC[C@H](NC(=O)[C@H](C)N)C(=O)N[C@H](Cc2ccc(I)cc2)C(=O)N[C@@H](Cc2c[nH]c3ccccc23)C(=O)N[C@@H](CCCCN)C(=O)N[C@@H](Cc2ccc(O)cc2)C(=O)N1)C(=O)O
